In patent US12583852B2, “Heterocycle derivative” (JW PHARMACEUTICAL CORPORATION, priority 2018, dated 2026):

Tested on: human dermal papilla cells
Assay: Promotion of proliferation of human dermal papilla cells (CellTiter-Glo Luminescent cell viability assay)
Type: cell-based
Details: human dermal papilla cells (ScienCell, 2499); drug 0 to 30 μM; 48 hours; CellTiter-Glo luminescence; compared to DMSO-treated control group
Procedure: The effect of promoting cell proliferation by the drug was analyzed using human dermal papilla cells (ScienCell, 2499). Human dermal papilla cells cultured using Mesenchymal Stem Cell Medium (ScienCell, 7501) medium were seeded at a density of 3×10^3 cells/well and in a volume of 100 μl in a 96-well plate, incubated overnight at 37° C. and 5% CO2, treated with the drug at different concentrations ranging from 0 to 30 μM in a volume of 100 μL, and incubated at 37° C. and 5% CO2 for 48 hours. CellTiter-Glo Luminescent cell viability assay was performed according to the manufacturer's protocol (Promega, G7573) to detect cell proliferation. Luminescence was measured using an Envision 2102 multilabeled reader (PerkinElmer) equipment, and the cell proliferation rate was analyzed by the activity of the drug-treated group compared to the DMSO-treated group (control group), which is a solvent of the drug.

SMILES	Maximum DP cell proliferation (%)
Cn1nc(N)c2cc(F)c(Nc3cccc4c3CCC4)nc21 [Compound 90, N6-(2,3-dihydro-1H-inden-4-yl)-5-fluoro-1-methyl-1H-pyrazolo[3,4-b]pyridine-3,6-diamine]	13%
O=C(Nc1n[nH]c2nc(Nc3cccc4c3CCC4)c(F)cc12)c1ccncc1 [Compound 91, N-(6-((2,3-dihydro-1H-inden-4-yl)amino)-5-fluoro-1H-pyrazolo[3,4-b]pyridin-3-yl)isonicotinamide]	6.4%
CC(=O)Nc1n[nH]c2nc(Nc3cccc4c3CCC4)c(F)cc12 [Compound 92, N-(6-((2,3-dihydro-1H-inden-4-yl)amino)-5-fluoro-1H-pyrazolo[3,4-b]pyridin-3-yl)acetamide]	8%
Nc1nn(Cc2ccccc2)c2nc(Nc3cccc4c3CCC4)c(F)cc12 [Compound 93, 1-benzyl-N6-(2,3-dihydro-1H-inden-4-yl)-5-fluoro-1H-pyrazolo[3,4-b]pyridine-3,6-diamine]	2.8%
CC(=O)Cn1nc(N)c2cc(F)c(Nc3cccc4c3CCC4)nc21 [Compound 94, 1-(3-amino-6-((2,3-dihydro-1H-inden-4-yl)amino)-5-fluoro-1H-pyrazolo[3,4-b]pyridin-1-yl)propan-2-one]	18%
CN(C)CCn1nc(N)c2cc(F)c(Nc3cccc4c3CCC4)nc21 [Compound 96, N6-(2,3-dihydro-1H-inden-4-yl)-1-(2-(dimethylamino)ethyl)-5-fluoro-1H-pyrazolo[3,4-b]pyridine-3,6-diamine]	1.2%
O=C1c2ccccc2C(=O)N1c1nn(C2CCCCO2)c2nc(Nc3cccc4c3CCC4)c(F)cc12 (centres unmarked) [Compound 97, 2-(6-((2,3-dihydro-1H-inden-4-yl)amino)-5-fluoro-1-(tetrahydro-2H-pyran-2-yl)-1H-pyrazolo[3,4-b]pyridin-3-yl)isoindoline-1,3-dione]	10%
Nc1nn(CC(=O)c2ccccc2)c2nc(Nc3cccc4c3CCC4)c(F)cc12 [Compound 100, 2-(3-amino-6-((2,3-dihydro-1H-inden-4-yl)amino)-5-fluoro-1H-pyrazolo[3,4-b]pyridin-1-yl)-1-phenylethan-1-one]	0.8%
COC(=O)CNc1n[nH]c2nc(Nc3cccc4c3CCC4)c(F)cc12 [Compound 101, methyl (6-((2,3-dihydro-1H-inden-4-yl)amino)-5-fluoro-1H-pyrazolo[3,4-b]pyridin-3-yl)glycinate]	9.7%
CNc1n[nH]c2nc(Nc3cccc4c3CCC4)c(F)cc12 [Compound 102, 5-fluoro-N6-indan-4-yl-N3-methyl-1H-pyrazolo[3,4-b]pyridine-3,6-diamine]	13%
Fc1cc2cn[nH]c2nc1Nc1cccc2c1CCC2 [Compound 104, N-(2,3-dihydro-1H-inden-4-yl)-5-fluoro-1H-pyrazolo[3,4-b]pyridin-6-amine]	15%
CN(C)c1n[nH]c2nc(Nc3cccc4c3CCC4)c(F)cc12 [Example 105, N6-(2,3-dihydro-1H-inden-4-yl)-5-fluoro-N3,N3-dimethyl-1H-pyrazolo[3,4-b]pyridine-3,6-diamine]	12%
CS(=O)(=O)Nc1n[nH]c2nc(Nc3cccc4c3CCC4)c(F)cc12 [Example 106, N-(6-((2,3-dihydro-1H-inden-4-yl)amino)-5-fluoro-1H-pyrazolo[3,4-b]pyridin-3-yl)methanesulfonamide]	4.8%
Fc1cc2c(-c3ccccc3)n[nH]c2nc1Nc1cccc2c1CCC2 [Example 109, 5-fluoro-N-indan-4-yl-3-phenyl-1H-pyrazolo[3,4-b]pyridin-6-amine]	3.6%
Nc1n[nH]c2nc(Nc3cccc4c3CCC4)ncc12 [Example 112, N6-(2,3-dihydro-1H-inden-4-yl)-1H-pyrazolo[3,4-d]pyrimidine-3,6-diamine]	2%
Nc1n[nH]c2nc(Nc3cccc(C(F)F)c3F)ncc12 [Example 115, N6-(3-(difluoromethyl)-2-fluorophenyl)-1H-pyrazolo[3,4-d]pyrimidine-3,6-diamine]	3.7%
Nc1n[nH]c2nc(Nc3cccc4c3CCC4)nc(Cl)c12 [Example 116, 4-chloro-N6-indan-4-yl-3a,4-didehydro-1H-pyrazolo[3,4-d]pyrimidine-3,6-diamine]	5.9%
Nc1n[nH]c2nc(Nc3cccc(C(F)(F)F)c3F)ncc12 [Example 117, N6-[2-fluoro-3-(trifluoromethyl)phenyl]-1H-pyrazolo[3,4-d]pyrimidine-3,6-diamine]	6.7%
Fc1cc2c(Br)n[nH]c2nc1Nc1c(Br)cc(Br)c2c1CCC2 [Example 119, 3-bromo-N-(5,7-dibromoindan-4-yl)-5-fluoro-1H-pyrazolo[3,4-b]pyridin-6-amine]	1.3%
O/N=N\c1n[nH]c2nc(Nc3cccc4c3CCC4)c(F)cc12 [Example 122, (Z)-N-(2,3-dihydro-1H-inden-4-yl)-5-fluoro-3-(hydroxydiazenyl)-1H-pyrazolo[3,4-b]pyridin-6-amine]	5.3%
